In one test the test system is HIV derived RRE RNA. Kind of test: heterologous hybridization inhibition assay with RRE RNA. The following applies: radiolabeled RRE RNA, rRNA competitor. The class given is binding. An excerpt: Specificity is further tested in a third assay in which the radiolabeled RNA is the HIV derived RRE RNA and the biotinylated oligonucleotide is complementary to RRE. Compounds with high specific activity for εRNA are not expected to be inhibitory in the RRE RNA based assay. The specificity of the ligand for εRNA is expressed as the ratio between the IC50 value obtained with the specific target RNA and the IC50 value obtained with a heterologous target (RRE RNA), both in the presence of competitor RNA.
(§1) Biotinylated oligonucleotides 262.104 A (5′-biotin-TTAGGCACAGCTTGGAGGCTTGAACAGTG-3′) and 208.92 A (5′-biotin-CGTCATTGACGCTGCGCCCA-3′) were synthetically prepared (Oligos Etc., Willsonville, Oreg.). These oligonucleotides are complementary to regions of the εRNA and RRE RNA targets, respectively.
Compounds that inhibited the primary screening assay described above were individually titrated in the same assay at concentrations between 0.1 μM and 200 μM in the absence and presence of 60-fold excess rRNA as a non-specific competitor. A third titration was performed in a heterologous assay using radiolabeled RRE RNA as the target and the complementary biotinylated oligonucleotide 208.92 A. From these three assays, the IC50 values and specificity for each compound was calculated.
IC50 values using rRNA competitor (from Example 1) and radiolabeled RRE RNA are shown in Table 1 for the following ligands. […] Specificity is calculated as the ratio of RRE+rRNA IC50/εRNA+rRNA IC50.

The next test relates to HBV εRNA. The experiment in a line: εRNA/oligonucleotide hybridization inhibition assay with rRNA competitor. In kind it is binding, Hepatitis B virus. The following applies: for IC50: radiolabeled εRNA, 60-fold excess rRNA competitor; for Specificity: ratio RRE+rRNA IC50/εRNA+rRNA IC50, max = inactive in RRE assay.
Description: One assay used in determining the activity of the compounds of the present invention is disclosed in copending U.S. patent application Ser. No. 08/709,342, filed Sep. 6, 1996, the disclosure of which is hereby incorporated herein by reference in its entirety. The assay detects the interaction between target RNA molecule and a test ligand by measuring the ligand's ability to inhibit hybridization between the RNA and a specific complementary oligonucleotide. In one embodiment, the target RNA is radiolabelled and the oligonucleotide is labeled with biotin; in this case, the extent of hybridization is determined by measuring the amount of radiolabeled RNA detected with a streptavidin/biotin-based capture system.
Concentrations of test compounds of between about 0.1 μM and about 200 μM are assayed for inhibition using radiolabeled εRNA in the absence or presence of a large excess of an unlabeled non-specific RNA competitor (such as, e.g., ribosomal RNA, rRNA). Compounds that bind εRNA non-specifically are competitively displaced by the rRNA, resulting in reduced or no inhibition of hybridization between the radiolabeled εRNA and the biotinylated oligonucleotide. Conversely, the inhibitory activity of compounds that specifically bind εRNA is not affected by the presence of the competitor rRNA.
The high throughput assays were performed in 96-well plates containing eighty drugs (5 μl, 60 μg/ml in DMSO) distributed one per well in columns 2-6 and 8-12 of the 8×12 96-well array. The remaining 16 wells in columns 1 and 7 were filled with 5 μl DMSO to serve as the control reactions. 45 μl of reaction mixture containing buffer, salts and radiolabeled target RNA were delivered on each well of the compound-containing plates to yield a 50 μl mixture containing 50 mM Tris-HCl, pH 7.5, 200 mM KCl, 5 mM MgCl2, 5 mM DTT, 6 μg/ml test compound, and 25 nM [^32 P]-labeled εRNA. The reaction was started by addition of the biotinylated oligonucleotide, 262.104 A (5 μl) to a final concentration of 100 nM. The reaction was incubated at 25° C. for 60 minutes, and then 5 μl of 0.3 mg/ml SAAP (streptavidin alkaline phosphatase conjugate, Pierce, Rockford, Ill.) was added. The reaction was incubated for an additional 30 minutes at 25° C. and filtered through 96-well format HATF nitrocellulose filters (Millipore, Bedford, Mass.) using a multiscreen vacuum manifold (Millipore, Bedford, Mass.). Subsequently, 300 μl of wash buffer (50 mM Tris-HCl, pH 7.5, 200 mM KCl) was filtered through to wash the filters. The filters were dried and supplemented with 20 μl scintillation fluid (Super Mix, Wallac Oy, Turku, Finland). The amount of hybrids formed was determined by scintillation counting of the radiolabeled εRNA retained on the filters.
The inhibitory effect of a test compound (expressed as percentage of inhibition, % Inh.) was calculated using the following formula: […]
where Ro is the average retention of hybrids in the 16 identical control reactions in columns 1 and 7 and Rx is the hybrids retained in the presence of a test drug, x.
as §1
A plasmid containing the target sequence following the bacteriophage SP6 promoter was used as a template for the synthesis of radiolabeled εRNA using [α^32 P]-UTP and SP6 RNA polymerase as described by the suppliers, e.g., Ambion, Austin, Tex., and by methods well known to those of ordinary skill in the art.
Compounds that inhibited the primary screening assay described above were individually titrated in the same assay at concentrations between 0.1 μM and 200 μM in the absence and presence of 60-fold excess rRNA as a non-specific competitor. […]

Take `O=C(C(=NNc1nc(NCc2ccccc2)nc(Nc2ccc([N+](=O)[O-])cc2)n1)c1ccccc1)c1ccccc1` [Compound 131]: in the test on HIV derived RRE RNA, the IC50 (in general, the midpoint of a concentration-inhibition curve) was found to be 36.7 µM. Moreover, in the test on HBV εRNA, the IC50 was 36.7 µM and the Specificity worked out at 1.0.
As for `CCN(CC)c1nc(NN=CC=Cc2ccccc2)nc(Nc2ccc([N+](=O)[O-])cc2)n1` [Compound 132], the IC50 with HIV derived RRE RNA came to 800 µM. Moreover, in the test on HBV εRNA, the IC50 amounted to 70.1 µM and the Specificity is recorded as 11.4.
The corresponding values for `Cc1[nH]c2ccccc2c1C=NNc1nc(NCc2ccccc2)nc(N2CCOCC2)n1` [Compound 142] are 1130 µM, 226 µM and 5.0.
Taken in the same sequence, the figures for `COc1ccc([N+](=O)[O-])cc1C=NNc1nc(Nc2ccccc2)nc(N2CCCCC2)n1` [Compound 143] were 223 µM, 446 µM and 0.5.
For the compound `O=[N+]([O-])c1ccc(Nc2nc(NN=Cc3ccc(-c4ccc([N+](=O)[O-])cc4)o3)nc(Nc3ccccc3)n2)cc1` [Compound 144], the IC50 in the test with HIV derived RRE RNA came to 99.9 µM. Also, in the test on HBV εRNA, the IC50 is 1000 µM and the Specificity turned out to be 0.1.
The corresponding values for `CC(=NNc1nc(Nc2ccc([N+](=O)[O-])cc2)nc(N2CCCCC2)n1)c1ccccc1` [Compound 151] are 700 µM, 200 µM and 3.5.
Taken in the same sequence, the figures for `O=[N+]([O-])c1ccc(Nc2nc(NN=Cc3ccc(O)c([N+](=O)[O-])c3)nc(N3CCOCC3)n2)cc1` [Compound 152] were 150 µM, 300 µM and 0.5.
The corresponding values for `O=C1Nc2ccccc2C1=NNc1nc(Nc2ccc([N+](=O)[O-])cc2)nc(N2CCCCC2)n1` [Compound 153] are 500 µM, 500 µM and 1.0.
In the case of `CCCCN(CCCC)c1nc(NN=Cc2ccc(C=NNc3nc(Nc4ccc([N+](=O)[O-])cc4)nc(N(CCCC)CCCC)n3)cc2)nc(Nc2ccc([N+](=O)[O-])cc2)n1` [Compound 154], the IC50 with HIV derived RRE RNA was 300 µM; in the test with HBV εRNA, 1180 µM. Further, the Specificity with HBV εRNA is given as 0.3.

The values are drawn from patent publication US6335339B1, “Triazine antiviral compounds” (Scriptgen Pharmaceuticals, Inc., priority 1998, dated 2002).
